Literature values, collected in US12268679B1 (priority 2021, dated 2025).

How the values were obtained:
human delta receptor = human delta receptor (Homo sapiens, UniProt P41143); conditions: Ferrari et al. 2017
[1] = animal studies, systemic administration, Hirao et al. 2008

Sequence of human delta receptor (P41143 whole entry): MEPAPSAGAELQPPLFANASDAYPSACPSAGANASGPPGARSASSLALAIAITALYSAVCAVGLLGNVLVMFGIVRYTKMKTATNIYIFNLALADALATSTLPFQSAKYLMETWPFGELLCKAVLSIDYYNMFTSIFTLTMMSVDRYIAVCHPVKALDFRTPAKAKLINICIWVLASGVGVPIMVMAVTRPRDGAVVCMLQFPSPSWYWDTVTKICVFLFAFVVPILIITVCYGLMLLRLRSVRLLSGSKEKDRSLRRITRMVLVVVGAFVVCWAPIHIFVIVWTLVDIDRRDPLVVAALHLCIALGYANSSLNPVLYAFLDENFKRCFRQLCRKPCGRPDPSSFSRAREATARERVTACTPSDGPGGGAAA

CC1(N2CCC(n3c([C@@H]4CCCNC4)nc4ccccc43)CC2)CCCCCCC1 [MCOPPB, 1-[1-(1-methylcyclooctyl)-4-piperidinyl]-2-[(3R)-3-piperidinyl]-1H-benzimidazole]
activation of human delta receptor (human delta receptor): only a small amount
inhibition of memory or motor function [1]: no inhibition of memory or motor function
sedative side effects ([1]; appear only at much higher doses than the effective anxiolytic dose range): only slight sedative side effects
